One molecule from publication PMC9603946, “On the Sensitivity of the Virion Envelope to Lipid Peroxidation” (Microbiology Spectrum, 2022) can be followed below.

One data set has as its system HSV-1. Briefly: HSV-1 virion infectivity (plaquing efficiency) on Vero cells after virion pretreatment. As to conditions: Vero; for EC50: Human alphaherpesvirus 1, Vero. As to the method:
The inocula were removed, and the cells were washed and then incubated at 37°C in 5% CO2 until plaques were visible and well-resolved (about 2 days), at which time they were fixed and stained with crystal violet.
HSV-1 suspensions of 20,000 plaque PFU in 250 μL DMEM were mixed 1:1 with 2-fold serial dilutions of the general peroxidators and were incubated in a water bath for 2 h at 37°C. Next, treated virions were diluted 1:100 before being adsorbed onto cells for 1 h at 37°C. The inocula were removed, and the cells were washed twice with cold DMEM. Infected cells were overlaid with DMEM supplemented with 2% (Vero) or 1% (HFF) methylcellulose and 5% FBS and were incubated at 37°C until plaques were visible and well-resolved, typically in about 2 days. Cell monolayers were fixed and stained with 1% crystal violet in 17% methanol for 18 h at RT. The cells were washed, and the plaques were counted and normalized to those produced by the vehicle treated virions.
To test the effects of lipid soluble antioxidants on virions, 10 μM vitamin E loaded onto 1% carrier BSA in the dark for 4.5 h at RT was incubated with 10^6 HSV-1 virions for 3 h at 37°C. […] The treated virions were diluted 1:100 before infecting cells. […] The mix was incubated for 2 h at 37°C, diluted 1:100, and used to infect cells. The infectivity of an aliquot of treated virions was tested via a plaque assay.

For the next data set, the system named is Vero cells. In words: Vero cell lipid peroxidation probed with liperfluo. It is filed as cell-based, African green monkey. Conditions: Chlorocebus sabaeus, Vero, Liperfluo probe, read-out: CP50 (the source's name). How it is done:
(§1) The effects of peroxidators have been commonly evaluated against purified lipids and liposomes as a proxy, but they have not been evaluated against virions ([50], [53][–][55]). We instead directly evaluated the extent of virion lipid peroxidation.
To evaluate cell lipid peroxidation using liperfluo, 7.5 × 10^3 Vero cells were seeded into each well of 96-well plates and incubated for 18 h at 37°C in 5% CO2. […] Two hours later, the cells were washed twice, and the fluorescence was evaluated in a TECAN Infinite M200 Pro at 515 nm excitation and 545 nm emission.
(§2) To evaluate the effects of a lipid soluble antioxidant, cells or virions were preloaded with vitamin E-BSA for 3 h at 37°C. Vitamin E-BSA containing medium was removed, and the cells were washed twice with DMEM. Liperfluo (20 or 10 μM for cells or virions, respectively) or C11-Bodipy (1 μM for cells or 0.1 mol% for virions) were preloaded into the cells or virions for 30 min at 37°C.
(§3) To evaluate the effects of water soluble antioxidants, liperfluo (20 μM for cells or 10 μM for virions) or C11-Bodipy (1 μM for cells or 0.1 mol% for virions) were preloaded into the cells or virions for 30 min at 37°C. […] Fluorescence was evaluated in a TECAN Infinite M200 Pro at 515 nm excitation and 545 nm emission for liperfluo or at 550 nm excitation and 580 to 630 nm emission for C11-Bodipy.

In a further data set the test system is HSV-1 virions. In words: microbe, parasite or virus in culture. Details: species or system HSV-1 KOS. As to the method: as §1
To evaluate virion peroxidation using liperfluo, 50 μL DMEM that contained 5 × 10^6 PFU of HSV-1 was added to 96-well plates. Virions were then preloaded with 10 μM liperfluo for 20 min at 37°C. […] Fluorescence was evaluated in a TECAN Infinite M200 Pro at 515 nm excitation and 545 nm emission. Medium containing no virus was used as blank.
as §2, §3

Read-outs that look alike come from different tables or passages of the source.

`CC(C)CC(C)(C#N)N=NC(C)(C#N)CC(C)C` (stereo not drawn) [AMVN, 2,2′-azobis(2,4-dimethylvaleronitrile)]: the EC50 in the data set on HSV-1 (2 h, no antioxidant, virions treated 2 h at 37°C) was 800 µM; with HSV-1 (virions preloaded with vitamin E (10 μM, BSA carrier)) it was 3800 µM; in the data set with HSV-1 (with vitamin C (10 μM)) it was 2600 µM; in the data set on Vero cells (no antioxidant), 12600 µM; with Vero cells (vitamin C) it was 11100 µM; in the data set with Vero cells (vitamin E), 16100 µM. In addition, the EC50 is 1200 µM with HSV-1 virions (Human alphaherpesvirus 1, read-out: VP50, Liperfluo probe, no antioxidant); 1200 µM in the data set on HSV-1 virions (Human alphaherpesvirus 1, read-out: VP50, Liperfluo probe, vitamin C); 900 µM with HSV-1 virions (Human alphaherpesvirus 1, read-out: VP50, Liperfluo probe, vitamin E). Also, in the data set with HSV-1, the “concentration of maximal inhibition of virion infectivity” value is on record as 5 mM. In addition, the “concentration giving a loss of infectivity of about 30%” value with HSV-1 (2 h at 37°C) was found to be 0.3 mM. Further, the “SI, CC50/EC50” value amounted to 1.3 in the data set with HSV-1 (vitamin C) and 1.2 in the data set with HSV-1 (vitamin E). Further, in the data set on HSV-1 (with BSA), the “lowest concentration that decreased virion infectivity in the presence of BSA” value came out at 2.5 mM. Also, the “lowest effective concentration on infectivity in the presence of the antioxidants” value in the data set on HSV-1 (with antioxidants) is on record as 1.5 mM.
